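Assay format: 96-well plates, 48-hour exposure. GI50 is the concentration that inhibits growth by half.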 Activity calls are given as the source filed them. Rule as the data show it: active = GI50 up to about 1.1 µM and inactive = higher.
Tests used:
Test in all cases: NCI-60 cell line screen, 48 h
[1] = test system: NCI-H460
[2] = test system: EKVX
[3] = test system: Malme-3M
[4] = test system: SF-268
[5] = test system: U-251
[6] = test system: RXF 393
[7] = test system: SF-539
[8] = test system: RPMI-8226
[9] = test system: TK-10
[10] = test system: SK-MEL-28
[11] = test system: UACC-257
[12] = test system: SK-MEL-5
[13] = test system: M14
[14] = test system: UO-31
[15] = test system: LOX IMVI
[16] = test system: IGROV-1
[17] = test system: SK-MEL-2

Measured: GI50

CCOC(=O)C1N(S(=O)(=O)c2ccc(C)cc2)CCC12C(c1ccc(OC)c(OC)c1)=Nc1ccccc12 (stereo not drawn)
inactive: [1] > 100 µM | [2] > 100 µM | [3] > 100 µM | [4] 47.8 µM | [5] > 100 µM | [6] 49.3 µM | [7] > 100 µM | [8] > 100 µM | [9] > 100 µM | [10] > 100 µM | [11] > 100 µM | [12] > 100 µM | [13] > 100 µM | [14] > 100 µM | [15] > 100 µM | [16] > 100 µM

N#Cc1c2nc3ccccc3nc2n2ccc3ccccc3c12
inactive: [1] > 100 µM | [17] > 100 µM | [2] > 100 µM | [3] > 100 µM | [4] > 100 µM | [5] > 100 µM | [7] > 100 µM | [8] > 100 µM | [9] > 100 µM | [10] > 100 µM | [11] > 100 µM | [12] > 100 µM | [13] > 100 µM | [14] > 100 µM | [16] > 100 µM

CC1(c2cccc3c2C2(O)C=CC4(CCC32)OCCO4)OCCO1 (stereo not drawn)
inactive: [1] > 100 µM | [17] > 100 µM | [2] > 100 µM | [3] > 100 µM | [4] > 100 µM | [5] > 100 µM | [6] > 100 µM | [7] > 100 µM | [8] > 100 µM | [9] > 100 µM | [10] > 100 µM | [11] > 100 µM | [12] > 100 µM | [13] > 100 µM | [14] > 100 µM | [15] > 100 µM | [16] > 100 µM

COc1cc2ccc(CC#N)cc2cc1OC
inactive: [1] > 100 µM | [17] > 100 µM | [2] 83.8 µM | [3] > 100 µM | [4] > 100 µM | [5] > 100 µM | [6] > 100 µM | [7] > 100 µM | [9] > 100 µM | [10] > 100 µM | [11] > 100 µM | [12] 62.1 µM | [14] > 100 µM | [15] > 100 µM

CCN(CC)CCN(C)CC(C)(C)C(=O)/C=C/c1ccccc1
inactive: [1] 5.68 µM | [17] 11.7 µM | [2] 13.1 µM | [3] 13.4 µM | [4] 12.6 µM | [5] 10.4 µM | [7] 5.01 µM | [8] 4.15 µM | [9] 22.2 µM | [10] 16 µM | [11] 11.7 µM | [12] 14.2 µM | [13] 13 µM | [14] 13.4 µM | [15] 11 µM | [16] 16.7 µM

CC(=O)N/C(=C\c1cccc([N+](=O)[O-])c1)c1nc2ccc3c(c2[nH]1)C(=O)c1ccccc1C3=O
inactive: [1] 27.2 µM | [17] 50.2 µM | [2] 12.7 µM | [3] > 74.8 µM | [4] 13.6 µM | [5] 45.6 µM | [6] 22.8 µM | [7] 42 µM | [8] 5.04 µM | [9] > 56 µM | [10] > 100 µM | [12] > 79.6 µM | [13] 70.3 µM | [14] 3.62 µM | [15] 13.3 µM | [16] 10.4 µM

COc1ccc(C2Oc3cc(OC)c(OC)cc3C2CCl)cc1OC (stereo not drawn)
inactive: [1] > 100 µM | [17] > 100 µM | [2] > 100 µM | [3] > 100 µM | [4] > 100 µM | [5] > 100 µM | [7] > 100 µM | [8] > 100 µM | [9] > 100 µM | [10] > 100 µM | [11] > 100 µM | [12] 34.1 µM | [13] > 100 µM | [14] > 100 µM | [15] > 100 µM

CCOC(=O)NC(=O)c1c[nH]c(=O)[nH]c1=O
inactive: [1] > 100 µM | [17] > 100 µM | [2] > 100 µM | [3] > 100 µM | [5] > 100 µM | [7] > 100 µM | [8] > 100 µM | [9] > 100 µM | [10] > 100 µM | [11] > 100 µM | [12] > 100 µM | [13] > 100 µM | [14] > 100 µM | [15] > 100 µM | [16] > 100 µM

N#Cc1cccc(/C=N/N/C(N)=N/O)c1
inactive: [1] 32.1 µM | [17] 72.6 µM | [2] 9.18 µM | [3] 85.1 µM | [4] 26.3 µM | [5] 59.6 µM | [6] 57.7 µM | [7] > 100 µM | [9] 37.6 µM | [10] > 100 µM | [11] > 100 µM | [13] 41.4 µM | [14] 49.1 µM | [15] 21.2 µM | [16] 24.2 µM

CCOC(=O)CC(=O)ON(C)C(C)=O
inactive: [1] > 100 µM | [17] > 100 µM | [2] > 100 µM | [3] > 100 µM | [4] > 100 µM | [5] > 100 µM | [7] > 100 µM | [8] > 100 µM | [9] > 100 µM | [11] > 100 µM | [12] > 100 µM | [13] > 100 µM | [14] > 100 µM | [15] > 100 µM | [16] > 100 µM

C[Si](C)(C)C(Sc1ccccc1)(Sc1ccccc1)Sc1ccccc1
inactive: [1] > 100 µM | [17] 25.9 µM | [2] 95.5 µM | [4] 76.6 µM | [5] 57.7 µM | [6] 29.4 µM | [7] > 100 µM | [8] 41.7 µM | [9] > 100 µM | [10] 46.7 µM | [11] 52.5 µM | [12] 67.9 µM | [14] > 100 µM | [15] 58.5 µM

CC(C)N(C(=O)c1cccc(C(=O)N(C(C)C)C(C)C)c1)C(C)C
inactive: [1] > 100 µM | [17] > 100 µM | [2] > 100 µM | [3] > 100 µM | [4] > 100 µM | [5] > 100 µM | [7] > 100 µM | [8] 24.9 µM | [9] > 100 µM | [10] > 100 µM | [11] > 100 µM | [12] > 100 µM | [13] > 100 µM | [14] > 100 µM | [15] > 100 µM | [16] > 100 µM

Cc1cccc(NC(=O)c2c(N)[n+]([O-])c3ccccc3[n+]2[O-])c1
inactive: [1] 12.9 µM | [17] 7.76 µM | [2] 16.9 µM | [3] 12.7 µM | [4] 7.28 µM | [5] 1.78 µM | [6] 4.03 µM | [7] 5.05 µM | [10] 8.05 µM | [11] 11.3 µM | [12] 5.53 µM | [13] 12 µM | [14] 18.4 µM | [16] 5.11 µM

CCCCN(CCCC)c1c([N+](=O)[O-])c(=O)nc2ccccn12
inactive: [1] 24.8 µM | [17] 31 µM | [2] 32.8 µM | [3] > 100 µM | [4] 29.3 µM | [5] 38.8 µM | [7] 31.4 µM | [8] 33.4 µM | [9] 46.9 µM | [10] 13.7 µM | [12] 33.5 µM | [13] 27.9 µM | [14] 45.6 µM | [16] > 100 µM

N=C(N)NS(=O)(=O)c1ccc(NCCc2c3ccccc3nc3ccccc23)cc1
inactive: [1] > 100 µM | [17] > 100 µM | [2] > 100 µM | [3] > 100 µM | [4] > 100 µM | [5] > 100 µM | [6] > 100 µM | [7] > 100 µM | [8] 7.26 µM | [9] > 100 µM | [10] > 100 µM | [11] 52.5 µM | [13] > 100 µM | [14] > 100 µM | [15] 70.1 µM | [16] > 100 µM

CNC(=S)NC(=S)N(C)C
inactive: [1] 2.71 µM | [2] > 100 µM | [4] > 100 µM | [5] > 100 µM | [6] > 100 µM | [7] > 100 µM | [8] 1.67 µM | [9] > 100 µM | [10] 6.32 µM | [11] > 100 µM | [13] > 100 µM | [14] > 100 µM | [15] 4.95 µM | [16] > 100 µM

CCC12CCCN(Cc3ccccc3)C1c1c(n(C)c3ccccc13)C(CO)C2 (stereo not drawn)
inactive: [1] 39.5 µM | [17] 55.7 µM | [2] 71.9 µM | [3] 46.6 µM | [4] 114 µM | [5] 49.3 µM | [6] 72.1 µM | [7] 37.6 µM | [8] 37.2 µM | [9] 64.9 µM | [10] 61 µM | [11] 48.6 µM | [12] 40.2 µM | [15] 41.9 µM | [16] 38.5 µM

Cc1cc(C)nc(NS(=O)(=O)c2ccc(NC(=O)c3ccc(Cl)c4c(Nc5ccc(S(=O)(=O)N=C(N)N)cc5)c5ccccc5nc34)cc2)n1
inactive: [1] > 10 µM | [2] > 100 µM | [3] > 100 µM | [4] 35.1 µM | [5] 34.8 µM | [6] > 10 µM | [7] 34 µM | [8] 28.1 µM | [9] 33.9 µM | [10] 58.9 µM | [11] 51.8 µM | [12] > 100 µM | [13] > 100 µM | [14] > 100 µM | [15] 17.8 µM | [16] 63.8 µM

From ChEMBL document CHEMBL1201862, “PubChem BioAssay data set” (2004)
